Results on 6 compounds are retold here after US10292394B2, “Herbicidal compounds” (Syngenta Participations AG, priority 2015, dated 2019).

Common to all, as to assay: Post-emergence efficacy, glasshouse pot test
Common to all, as to format: in vivo
What all share (details): post-emergence application, evaluated after 13 days

Assay [1] has as its system Ipomoea hederacea (IPOHE). The procedure: (§1) B1 Post-Emergence Efficacy Seeds of a variety of test species are sown in standard soil in pots:—Solanum nigrum (SOLNI), Amaranthus retoflexus (AMARE), Setaria faberi (SETFA), Alopecurus myosuroides (ALOMY), Echinochloa crus-galli (ECHCG), Ipomoea hederacea (IPOHE), Lolium perenne (LOLPE). After 8 days cultivation (post-emergence) under controlled conditions in a glasshouse (at 24/16° C., day/night; 14 hours light; 65% humidity), the plants are sprayed with an aqueous spray solution derived from the formulation of the technical active ingredient in acetone/water (50:50) solution containing 0.5% Tween 20 (polyoxyethylene sorbitan monolaurate, CAS RN 9005-64-5). Compounds are applied at 1000 g/ha and 250 g/ha. The test plants are then grown in a glasshouse under controlled conditions in a glasshouse (at 24/16° C., day/night; 14 hours light; 65% humidity) and watered twice daily. After 13 days, the test is evaluated for the percentage damage caused to the plant. The biological activities are assessed on a five point scale (5=80-100%; 4=60-79%; 3=40-59%; 2=20-39%; 1=0-19%).

For the next assay, the system named is Setaria faberi (SETFA). As for the experimental part:
as §1

The test system of another assay is Solanum nigrum (SOLNI). As for the experimental part:
as §1

Assay [2] concerns Echinochloa crus-galli (ECHCG). As for the experimental part:
as §1

For the next assay, the system named is Lolium perenne (LOLPE). As for the experimental part:
as §1

In assay [3] the test system is Amaranthus retoflexus (AMARE). The procedure:
as §1

Turning to `C#CCn1c(=O)c(-c2c(Cl)ccc(Cl)c2OCc2cnc(Cl)s2)c(O)c2cccnc21` [Compound 1.19], the “percentage damage caused to the plant, five point scale, IPOHE” value (“percentage damage caused … IPOHE” below) in assay [1] (250 g/ha) and in assay [1] (1000 g/ha) was 5 (5=80-100%) throughout. Besides, the “percentage damage caused to the plant, five point scale, SETFA” value (shortened to “percentage damage caused … SETFA”) is reported as 4 (4=60-79%) with Setaria faberi (SETFA) (250 g/ha) and 5 (5=80-100%) in the assay with Setaria faberi (SETFA) (1000 g/ha). For the same compound, the “percentage damage caused to the plant, five point scale, SOLNI” value (“percentage damage caused … SOLNI” for short) in the assay on Solanum nigrum (SOLNI) (250 g/ha) and in the assay with Solanum nigrum (SOLNI) (1000 g/ha) was 5 (5=80-100%) throughout. Moreover, the figures for the “percentage damage caused to the plant, five point scale, ECHCG” value (“percentage damage caused … ECHCG” below) in assay [2] (250 g/ha) and in assay [2] (1000 g/ha) were 3 (3=40-59%) and 5 (5=80-100%), respectively. Moreover, the “percentage damage caused to the plant, five point scale, LOLPE” value (shortened to “percentage damage caused … LOLPE”) in the assay with Lolium perenne (LOLPE) (250 g/ha) and in the assay on Lolium perenne (LOLPE) (1000 g/ha) was 5 (5=80-100%) in each case. In addition, the “percentage damage caused to the plant, five point scale, AMARE” value (“percentage damage caused … AMARE” for short) in assay [3] (250 g/ha) is 4 (4=60-79%); in assay [3] (1000 g/ha), 5 (5=80-100%).
For the compound `COc1ccnc2c1c(O)c(-c1c(Cl)ccc(Cl)c1OCc1cnc(Cl)s1)c(=O)n2CC(F)F` [Compound 19.19], the “percentage damage caused … IPOHE” value in assay [1] (250 g/ha) and in assay [1] (1000 g/ha) was 5 (5=80-100%) each time. The “percentage damage caused … SETFA” value in the assay on Setaria faberi (SETFA) (250 g/ha) and with Setaria faberi (SETFA) (1000 g/ha) was 5 (5=80-100%) in each case. Moreover, the “percentage damage caused … SOLNI” value in the assay with Solanum nigrum (SOLNI) (250 g/ha) and in the assay on Solanum nigrum (SOLNI) (1000 g/ha) was 5 (5=80-100%) throughout. For the same compound, the “percentage damage caused … ECHCG” value in assay [2] (250 g/ha) and in assay [2] (1000 g/ha) was 5 (5=80-100%) throughout. For the same compound, the figures for the “percentage damage caused … LOLPE” value in the assay with Lolium perenne (LOLPE) (250 g/ha) and in the assay on Lolium perenne (LOLPE) (1000 g/ha) were 4 (4=60-79%) and 5 (5=80-100%), respectively. The “percentage damage caused … AMARE” value in assay [3] (250 g/ha) and in assay [3] (1000 g/ha) was 5 (5=80-100%) throughout.
Turning to `O=c1c(-c2c(Cl)ccc(Cl)c2OCc2cnc(Cl)s2)c(O)c2cccnc2n1CC(F)F` [Compound 3.19], the “percentage damage caused … IPOHE” value in assay [1] (250 g/ha) and in assay [1] (1000 g/ha) was 5 (5=80-100%) in each case. Moreover, the “percentage damage caused … SETFA” value in the assay on Setaria faberi (SETFA) (250 g/ha) is given as 4 (4=60-79%); in the assay with Setaria faberi (SETFA) (1000 g/ha) it was 5 (5=80-100%). The “percentage damage caused … SOLNI” value in the assay on Solanum nigrum (SOLNI) (250 g/ha) and in the assay on Solanum nigrum (SOLNI) (1000 g/ha) was 5 (5=80-100%) each time. Also, the “percentage damage caused … ECHCG” value in assay [2] (250 g/ha) is on record as 3 (3=40-59%); in assay [2] (1000 g/ha), 4 (4=60-79%). For the same compound, the figures for the “percentage damage caused … LOLPE” value in the assay on Lolium perenne (LOLPE) (250 g/ha) and in the assay on Lolium perenne (LOLPE) (1000 g/ha) were 4 (4=60-79%) and 5 (5=80-100%), respectively. Moreover, the “percentage damage caused … AMARE” value in assay [3] (250 g/ha) and in assay [3] (1000 g/ha) was 5 (5=80-100%) in each case.
As for `O=c1c(-c2c(Cl)ccc(Cl)c2OCc2cnc(Cl)s2)c(O)c2nccnc2n1CC(F)F` [Compound 11.19], the “percentage damage caused … IPOHE” value in assay [1] (250 g/ha) and in assay [1] (1000 g/ha) was 5 (5=80-100%) throughout. Besides, the “percentage damage caused … SETFA” value in the assay with Setaria faberi (SETFA) (250 g/ha) is on record as 4 (4=60-79%); in the assay with Setaria faberi (SETFA) (1000 g/ha) it was 5 (5=80-100%). In addition, the “percentage damage caused … SOLNI” value with Solanum nigrum (SOLNI) (250 g/ha) and with Solanum nigrum (SOLNI) (1000 g/ha) was 5 (5=80-100%) each time. Moreover, the “percentage damage caused … ECHCG” value is on record as 5 (5=80-100%) in assay [2] (250 g/ha) and 4 (4=60-79%) in assay [2] (1000 g/ha). Further, the “percentage damage caused … LOLPE” value in the assay on Lolium perenne (LOLPE) (250 g/ha) and in the assay on Lolium perenne (LOLPE) (1000 g/ha) was 5 (5=80-100%) throughout. The “percentage damage caused … AMARE” value in assay [3] (250 g/ha) and in assay [3] (1000 g/ha) was 5 (5=80-100%) throughout.
Regarding `C#CCn1c(=O)c(-c2c(Cl)ccc(Cl)c2OCc2cnc(Cl)s2)c(O)c2c(OC)ccnc21` [Compound 17.19], the “percentage damage caused … IPOHE” value in assay [1] (250 g/ha) and in assay [1] (1000 g/ha) was 5 (5=80-100%) in each case. For the same compound, the “percentage damage caused … SETFA” value with Setaria faberi (SETFA) (250 g/ha) and in the assay with Setaria faberi (SETFA) (1000 g/ha) was 5 (5=80-100%) each time. In addition, the “percentage damage caused … SOLNI” value in the assay with Solanum nigrum (SOLNI) (250 g/ha) and with Solanum nigrum (SOLNI) (1000 g/ha) was 5 (5=80-100%) each time. Further, the “percentage damage caused … ECHCG” value in assay [2] (250 g/ha) and in assay [2] (1000 g/ha) was 5 (5=80-100%) each time. Besides, the “percentage damage caused … LOLPE” value was 4 (4=60-79%) with Lolium perenne (LOLPE) (250 g/ha) and 5 (5=80-100%) in the assay with Lolium perenne (LOLPE) (1000 g/ha). Further, the “percentage damage caused … AMARE” value in assay [3] (250 g/ha) and in assay [3] (1000 g/ha) was 5 (5=80-100%) in each case.
Consider `C#CCn1c(=O)c(-c2c(Cl)ccc(Cl)c2OCc2cnc(Cl)s2)c(O)c2nccnc21` [Compound 9.19, 7-[3,6-dichloro-2-[(2-chlorothiazol-5-yl)methoxy]phenyl]-8-hydroxy-5-prop-2-ynyl-pyrido[2,3-b]pyrazin-6-one], for which the “percentage damage caused … IPOHE” value in assay [1] (250 g/ha) and in assay [1] (1000 g/ha) was 5 (5=80-100%) throughout. Moreover, the “percentage damage caused … SETFA” value with Setaria faberi (SETFA) (250 g/ha) and in the assay with Setaria faberi (SETFA) (1000 g/ha) was 5 (5=80-100%) each time. Also, the “percentage damage caused … SOLNI” value in the assay on Solanum nigrum (SOLNI) (250 g/ha) and with Solanum nigrum (SOLNI) (1000 g/ha) was 5 (5=80-100%) in each case. Moreover, the “percentage damage caused … ECHCG” value in assay [2] (250 g/ha) and in assay [2] (1000 g/ha) was 5 (5=80-100%) throughout. Also, the “percentage damage caused … LOLPE” value in the assay with Lolium perenne (LOLPE) (250 g/ha) and in the assay with Lolium perenne (LOLPE) (1000 g/ha) was 5 (5=80-100%) throughout. Moreover, the “percentage damage caused … AMARE” value in assay [3] (250 g/ha) and in assay [3] (1000 g/ha) was 5 (5=80-100%) throughout.
